Residues, ends and D or L forms follow the SMILES beside them. *: point of attachment. Cbz = O=C(OCc1ccccc1)*; OtBu = CC(C)(C)O*
Target: T1, human Nav1.7 (Homo sapiens, UniProt Q15858)
T1 construct: expressed in transfected cells; host or cells: HEK293 stably expressing human Nav1.7
Assay: Whole-cell patch-clamp, HEK293 cells stably expressing human Nav1.7 with GFP or FGF13-GFP
Type: cell-based
Parameters: Nav1.7 repriming time course, Mean / Figure 4I, Mean versus Time (ms): unit not given here
Conditions: for use dependency, normalized INa amplitude, Mean: Fig 1I; for long-term inactivation, Mean: Fig 1J; for Nav1.7 repriming time course, Mean: Fig 1K; for Nav1.7 repriming time course, Mean / Time constant of repriming, Mean: PW164; for Time constant of repriming, Mean: Fig 1L
Method: Whole-cell patch clamp electrophysiology
HEK293-Nav1.7 cells, HEK293 stably expressing human Nav1.6 (HEK-Nav1.6), HEK293 stably expressing human Nav1.5 (HEK-Nav1.5), human hIPSC-derived sensory neurons (RealDRGTM from Anatomic Incorporated 1020F1-1M) and donor-derived DRG neurons were plated at low density on glass coverslips and processed for whole-cell patch clamp electrophysiology in voltage-clamp and/or current clamp mode. Whole-cell patch electrophysiological experiments were conducted following previously published studies (26). Current densities were obtained by dividing INa amplitude by membrane capacitance. Current –voltage relationships were generated by plotting current density as a function of the […]. Conductance (G Na) was calculated by the […]
where INa is the current amplitude at voltage Vm, and Erev is the Na+ reversal potential.
Activation curves were derived by plotting normalized GNa as a function of test potential and fitted using […]
Where GNa,Max is the maximum conductance, Va is the membrane potential of half-maximal activation, Em is the membrane voltage and k is the slope factor. For steady -state inactivation, normalized current amplitude (INa/INa,Max) at the test potential was plotted as a function of prepulse potential (Vm) and fitted using the […]
Where Vh is the potential of half-maximal inactivation, E m is the membrane voltage, and k is the slope factor.
Transient INa inactivation decay was estimated with the standard exponential equation. Inactivation time constant (tau, τ) was fitted with the following equation: […]
where I(t) is the amplitude of the current at time t and Iss is the steady-state current during a single voltage-step.
The goodness of fitting was determined by correlation coefficient (R), and the cutoff of R was set at 0.85. To observe effects on long-term inactivation (LTI), a four-step protocol was employed during which cells were subjected to four 0 mV, 20 ms depolarization pulses separated by −90 mV, 40 ms recovery intervals. To control for various cell sizes, the current densities were calculated by dividing INa peak current amplitude/membrane capacitance (Cm). To represent the fraction of channels entering into LTI, the peak INa observed during depolarization cycles 2-4 was normalized to the peak INa observed during depolarization cycle 1 (INa/INa,Cycle 1) and plotted as a function of the depolarization cycle.
The cumulative (frequency-dependent) use-dependency was determined by applying 20 pulses with a depolarization to −10 mV (50 ms duration) and 50 ms recovery intervals with a train of 20 pulses at 10 Hz from a holding potential at -70 mV. The current pulses were normalized to the first reco rded pulse and the currents at the 2nd to 20th pulses were compared. The same train was used to record use-dependency at various frequencies […]
The rate of recovery from inactivation was recorded at -80 mV with a standard repriming voltage protocol.
The cells were prepulsed to -20 mV for 20 ms to inactivate all currents, then driven back to the recovery potential (Vrec) for increasing recovery durations before the test pulse to 0 mV. The maximum pulse rate was 0.5 Hz. The […]
follows previous publications (16). The time constants were estimated from single exponential decay to time courses measured at recovery potentials ranging from -140 to -60 mV with the protocol as mentioned above.
Electrophysiological Recordings
HEK293 cells: Electrophysiological recordings in HEK293 stably expressing Nav1.7 (HEK-Nav1.7), Nav1.5 (HEK-Nav1.5) or Nav1.6 (HEK-Nav1.6) were performed at room temperature using a MultiClamp 700B or an Axopatch 200B amplifier (Molecular Devices) after incubating coverslips for 60 minutes either with 0.1% DMSO or 50 μM PW164 or ZL192 in the extracellular solution. The composition of recording solutions consisted of the […]
following salts: extracellular (mM): 140 NaCl, 3 KCl, 1 MgCl2, 1 CaCl2, 10 HEPES, 10 glucose, pH 7.3; […]
intracellular (mM): 130 CH3O3 SCs, 1 EGTA, 10 NaCl, 10 HEPES, pH 7.3. […]

T1 sequence (Q92913 1-192 partner limits assumed): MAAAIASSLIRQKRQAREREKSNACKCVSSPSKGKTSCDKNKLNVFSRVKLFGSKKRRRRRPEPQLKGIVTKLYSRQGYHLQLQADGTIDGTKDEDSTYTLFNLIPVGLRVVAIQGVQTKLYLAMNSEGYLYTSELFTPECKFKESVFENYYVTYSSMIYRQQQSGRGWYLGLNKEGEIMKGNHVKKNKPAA
T1 sequence (Q15858 1-1977 isoform Q15858-3): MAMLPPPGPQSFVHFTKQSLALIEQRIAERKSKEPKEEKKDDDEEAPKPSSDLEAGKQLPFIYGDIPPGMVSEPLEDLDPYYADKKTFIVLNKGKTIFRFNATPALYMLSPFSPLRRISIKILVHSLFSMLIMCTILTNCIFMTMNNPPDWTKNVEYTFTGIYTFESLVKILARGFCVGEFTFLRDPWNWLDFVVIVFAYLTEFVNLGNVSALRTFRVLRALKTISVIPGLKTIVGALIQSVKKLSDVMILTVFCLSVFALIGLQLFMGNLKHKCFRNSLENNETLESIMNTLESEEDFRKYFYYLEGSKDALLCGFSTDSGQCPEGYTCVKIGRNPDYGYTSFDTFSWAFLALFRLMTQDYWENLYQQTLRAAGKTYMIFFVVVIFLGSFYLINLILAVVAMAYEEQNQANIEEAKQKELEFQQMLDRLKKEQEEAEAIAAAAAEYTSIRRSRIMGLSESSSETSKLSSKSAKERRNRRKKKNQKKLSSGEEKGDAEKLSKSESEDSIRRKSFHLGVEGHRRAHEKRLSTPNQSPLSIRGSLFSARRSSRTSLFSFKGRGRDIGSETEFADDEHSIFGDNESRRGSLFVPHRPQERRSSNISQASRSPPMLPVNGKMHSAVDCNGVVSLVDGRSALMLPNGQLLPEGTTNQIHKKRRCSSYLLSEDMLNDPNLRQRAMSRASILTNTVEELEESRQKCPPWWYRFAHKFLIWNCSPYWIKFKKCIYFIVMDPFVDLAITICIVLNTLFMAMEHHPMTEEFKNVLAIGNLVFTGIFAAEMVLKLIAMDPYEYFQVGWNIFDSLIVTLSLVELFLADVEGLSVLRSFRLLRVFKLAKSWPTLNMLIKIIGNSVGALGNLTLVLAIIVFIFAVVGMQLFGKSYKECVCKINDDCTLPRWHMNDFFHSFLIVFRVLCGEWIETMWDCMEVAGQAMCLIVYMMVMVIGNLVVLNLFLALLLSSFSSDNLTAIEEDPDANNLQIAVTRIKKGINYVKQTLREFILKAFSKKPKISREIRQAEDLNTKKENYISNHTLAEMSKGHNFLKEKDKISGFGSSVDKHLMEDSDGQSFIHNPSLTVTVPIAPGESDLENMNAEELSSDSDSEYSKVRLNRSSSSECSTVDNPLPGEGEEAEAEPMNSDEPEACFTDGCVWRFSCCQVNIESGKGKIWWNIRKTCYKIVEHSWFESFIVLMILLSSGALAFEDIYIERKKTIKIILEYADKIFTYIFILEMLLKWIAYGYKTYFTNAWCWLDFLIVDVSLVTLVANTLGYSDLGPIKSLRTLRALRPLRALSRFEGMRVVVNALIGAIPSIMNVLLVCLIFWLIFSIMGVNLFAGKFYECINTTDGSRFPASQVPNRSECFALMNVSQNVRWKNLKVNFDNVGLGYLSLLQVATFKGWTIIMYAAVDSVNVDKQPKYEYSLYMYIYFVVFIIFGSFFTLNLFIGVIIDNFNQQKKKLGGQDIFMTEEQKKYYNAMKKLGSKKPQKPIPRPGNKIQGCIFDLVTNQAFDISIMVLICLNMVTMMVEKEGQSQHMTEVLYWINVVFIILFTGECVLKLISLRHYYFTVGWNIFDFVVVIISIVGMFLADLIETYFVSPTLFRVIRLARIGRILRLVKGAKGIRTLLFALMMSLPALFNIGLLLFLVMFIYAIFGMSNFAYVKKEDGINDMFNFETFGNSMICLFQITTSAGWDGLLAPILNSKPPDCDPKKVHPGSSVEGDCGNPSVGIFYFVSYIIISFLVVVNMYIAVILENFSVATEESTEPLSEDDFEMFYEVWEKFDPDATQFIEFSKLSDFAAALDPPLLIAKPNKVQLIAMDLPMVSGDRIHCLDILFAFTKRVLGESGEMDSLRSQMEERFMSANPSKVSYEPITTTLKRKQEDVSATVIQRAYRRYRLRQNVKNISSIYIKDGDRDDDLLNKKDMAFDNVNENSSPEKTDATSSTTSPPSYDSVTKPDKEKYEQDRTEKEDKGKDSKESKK

With `COC(=O)[C@@H](NC(=O)[C@H](CCC(=O)OC(C)(C)C)NC(=O)[C@H](CC(C)C)NC(=O)[C@@H]1CCCN1C(=O)OCc1ccccc1)C(C)C` [PW164] (Cbz-PLE(OtBu)V-OMe) the “use dependency, normalized INa amplitude, Mean” value (FGF13-GFP + PW164, Pulse 1) was 1, the “use dependency, normalized INa amplitude, Mean” value (FGF13-GFP + PW164, Pulse 3) was 0.7166 and the “use dependency, normalized INa amplitude, Mean” value (FGF13-GFP + PW164, Pulse 6) was 0.6629. For the same molecule, the “use dependency, normalized INa amplitude, Mean” value (FGF13-GFP + PW164, Pulse 10) was 0.6585, the “use dependency, normalized INa amplitude, Mean” value (FGF13-GFP + PW164, Pulse 15) was 0.6477 and the “use dependency, normalized INa amplitude, Mean” value (FGF13-GFP + PW164, Pulse 20) was 0.6421. For the same molecule, the “use dependency, normalized INa amplitude, Mean” value (GFP + PW164, Pulse 1) was 1, the “use dependency, normalized INa amplitude, Mean” value (GFP + PW164, Pulse 3) was 0.9017 and the “use dependency, normalized INa amplitude, Mean” value (GFP + PW164, Pulse 6) was 0.9079. For the same molecule, the “use dependency, normalized INa amplitude, Mean” value (GFP + PW164, Pulse 10) was 0.9071, the “use dependency, normalized INa amplitude, Mean” value (GFP + PW164, Pulse 15) was 0.9039 and the “use dependency, normalized INa amplitude, Mean” value (GFP + PW164, Pulse 20) was 0.8633. The “long-term inactivation, Mean” value (FGF13-GFP + PW164, Pulse 1) was 100, the “long-term inactivation, Mean” value (FGF13-GFP + PW164, Pulse 2) was 69.7175 and the “long-term inactivation, Mean” value (FGF13-GFP + PW164, Pulse 3) was 60.3266. For the same molecule, the “long-term inactivation, Mean” value (FGF13-GFP + PW164, Pulse 4) was 59.3421, the “long-term inactivation, Mean” value (GFP + PW164, Pulse 1) was 100 and the “long-term inactivation, Mean” value (GFP + PW164, Pulse 2) was 67.9412. The “long-term inactivation, Mean” value (GFP + PW164, Pulse 3) was 62.3462, the “long-term inactivation, Mean” value (GFP + PW164, Pulse 4) was 60.9288 and the “Nav1.7 repriming time course, Mean” value (Nav1.7 + FGF13-GFP, Time (ms) 2) was -1.745. The “Nav1.7 repriming time course, Mean” value (Nav1.7 + FGF13-GFP, Time (ms) 5) was -3.217, the “Nav1.7 repriming time course, Mean” value (Nav1.7 + FGF13-GFP, Time (ms) 9) was -6.791 and the “Nav1.7 repriming time course, Mean” value (Nav1.7 + FGF13-GFP, Time (ms) 17) was -10.2331. The “Nav1.7 repriming time course, Mean” value (Nav1.7 + FGF13-GFP, Time (ms) 33) was -13.6908, the “Nav1.7 repriming time course, Mean” value (Nav1.7 + FGF13-GFP, Time (ms) 65) was -18.7676 and the “Nav1.7 repriming time course, Mean” value (Nav1.7 + FGF13-GFP, Time (ms) 129) was -22.4288. For the same molecule, the “Nav1.7 repriming time course, Mean” value (Nav1.7 + FGF13-GFP, Time (ms) 257) was -26.5719, the “Nav1.7 repriming time course, Mean” value (Nav1.7 + FGF13-GFP, Time (ms) 513) was -28.3171 and the “Nav1.7 repriming time course, Mean” value (Nav1.7 + FGF13-GFP, Time (ms) 1025) was -29.4614. The “Nav1.7 repriming time course, Mean” value (Nav1.7 + FGF13-GFP, Time (ms) 2000) was -30.5045, the “Nav1.7 repriming time course, Mean” value (Nav1.7 + GFP, Time (ms) 2) was -0.8155 and the “Nav1.7 repriming time course, Mean” value (Nav1.7 + GFP, Time (ms) 5) was -1.631. The “Nav1.7 repriming time course, Mean” value (Nav1.7 + GFP, Time (ms) 9) was -4.0928, the “Nav1.7 repriming time course, Mean” value (Nav1.7 + GFP, Time (ms) 17) was -9.754 and the “Nav1.7 repriming time course, Mean” value (Nav1.7 + GFP, Time (ms) 33) was -14.6809. For the same molecule, the “Nav1.7 repriming time course, Mean” value (Nav1.7 + GFP, Time (ms) 65) was -21.498, the “Nav1.7 repriming time course, Mean” value (Nav1.7 + GFP, Time (ms) 129) was -26.6853 and the “Nav1.7 repriming time course, Mean” value (Nav1.7 + GFP, Time (ms) 257) was -32.6576. For the same molecule, the “Nav1.7 repriming time course, Mean” value (Nav1.7 + GFP, Time (ms) 513) was -33.7798, the “Nav1.7 repriming time course, Mean” value (Nav1.7 + GFP, Time (ms) 1025) was -35.5926 and the “Nav1.7 repriming time course, Mean” value (Nav1.7 + GFP, Time (ms) 2000) was -36.9364. For the same molecule, the “Time constant of repriming, Mean” value (Nav1.7 + FGF13-GFP, recovery potential -60) was 51.44 ms, the “Time constant of repriming, Mean” value (Nav1.7 + FGF13-GFP, recovery potential -70) was 60.77 ms and the “Time constant of repriming, Mean” value (Nav1.7 + FGF13-GFP, recovery potential -80) was 68.88 ms. For the same molecule, the “Time constant of repriming, Mean” value (Nav1.7 + FGF13-GFP, recovery potential -90) was 64.58 ms.

— publication PMC12259270, “Sensory neuron–expressed FGF13 controls nociceptive signaling in diabetic neuropathy models” (The Journal of Clinical Investigation, 2025)
